Test results taken from US7632862B2, “Pharmaceutical compositions that modulate HPTPbeta activity” (Procter & Gamble Company, priority 2002, dated 2009).

Tests used:
[1] = molecular target: T1, HPTPbeta (Homo sapiens, UniProt P23467); test: Inhibition of recombinant HPTPbeta phosphatase activity (DiFMUP substrate); assay type: biochemical; conditions: assay as in Example 2
T1 construct: GST (N, cleaved yes); His6 (C); made in house; host or cells: E. coli BL21-RIL
Procedure: Methods: Expression and purification of recombinant HPTPbeta catalytic domain [SEQ ID NO: 16] is accomplished by subcloning the intracellular domain of HPTPbeta (cDNA clone starting at the codon for amino acid 1662 through the stop codon) into the pGEX4T1 vector (Pharmacia) and expressed as a GST-fusion protein in E. coli BL21-RIL cells (Stratagene). Induced cells are thawed on ice and resuspended in 20 mM Tris-HCl, pH=8.0, 1% Trition x-100, 2 mM DTT and EDTA-free protease inhibitor cocktail. 10 mg/ml lysozyme is added and cells are lysed by sonication. The cell debris is pelleted using the Beckman J2-MI at 17,000 rpm. The supernatant is added to prepared glutathione sepharose 4B resin batch method. After binding, the column is poured and packed with the resin/protein mixture and then washed. […]
Measurements of recombinant phosphatase activity are performed using the substrate DiFMUP (6,8-difluoro-4-methylumbelliferyl phosphate) from Molecular Probes. […] Measurements of increased substrate fluorescence, indicative of phosphatase activity, are observed at an excitation wavelength of 355 nm and an emission wavelength of 460 nm using a Victor V plate reader (Wallac).
Methods: The potency of a class of HPTPbeta inhibitors was optimized by iterative screening for inhibition of HPTPbeta activity measured as described in Example 2. […]

[2] = test system: panel of recombinant phosphatases; test: Selectivity against a panel of recombinant phosphatases; assay type: biochemical; conditions: all panel phosphatases except the closely related HPTPeta
Procedure: FIG. 10. Compound 1 ((R)-[1-Methylcarbamoyl-2-(4-sulfoamino-phenyl)-ethyl]-carbamic acid tert-butyl ester) is a selective HPTPbeta inhibitor. Compound 1 was assayed for inhibition of a panel of recombinant phosphatases essentially as described in Example 2 for HPTPbeta. This compound was at least 10 fold selective for HPTPbeta over the other phosphatases tested except for the closely related HPTPeta.
Methods: The potency of a class of HPTPbeta inhibitors was optimized by iterative screening for inhibition of HPTPbeta activity measured as described in Example 2. […] To determine selectivity, compound 1 was tested against a panel of several other recombinant phosphatases (FIG. 10). VEGFR2 and Tie-2 receptor activation was assayed as mentioned in example 4. However, to assess the effect of the HPTPbeta inhibitor, the cells were pretreated for 30 minutes prior to stimulation with either 0.1 mM or 1 mM Compound 1 in Opti-MEM media (Invitrogen) at 37° C./5% CO2. Results: A potent and selective HPTPbeta inhibitor (Compound 1) was developed (see Example 11) as an agent to enhance the activation of VEGFR2 and Tie2 (FIG. 10). Compound was at least 10 fold selective for HPTPbeta versus the any of the other phosphatases except for the closely related HPTPeta. […] Clearly, these assays could be used to optimize the potency and selectivity and to test the efficacy of other HPTPbeta inhibitors.

[3] = test system: VEGFR2; test: Ligand-induced VEGFR2 phosphorylation in endothelial cells (anti-phosphotyrosine western blot); assay type: cell-based, human; conditions: endothelial cells pretreated 30 minutes with 0.1 mM or 1 mM; vs vehicle; p<0.05
Procedure: (§1) VEGFR2 and Tie-2 receptor phosphorylation is assayed by anti-phosphotyrosine western blotting following immunoprecipitation of the receptors from endothelial cells or receptor transfected 293 cells. Briefly, endothelial cells (HUVEC's) are plated on 100 mm dishes, stimulated with a dose range of either recombinant VEGF165 or recombinant Angiopoietin-1 (R&D Systems, resuspended in PBS containing 0.2% bovine serum albumin) for 5 or 7 minutes, respectively. […] Signal is detected using HRP labeled secondary antibodies and ECL solution (Amersham). […] Resulting films are scanned and quantitated using Quantity-One software (Bio-Rad) and results reported as the amount of phosphotyrosine signal over receptor signal (P-Tyr/Receptor).
(§2) Transfection in HUVEC's is performed with the above-mentioned antisense oligos at a 200 nM final concentration using LIPOFECTIN™ (Invitrogen), a reagent for transfectin of endothelial cells and transfection of DNA or RNA into cell lines, in OPTIMEM™-I (Gibco), a modification of Eagles Minimum Essential Medium, buffered with HEPES and sodium bicarbonate (2.4 g/L) and supplemented with hypoxanthine, thymidine, sodium pyruvate, L-glutamine, trace elements, and growth factors, according to the manufacturers instructions. […] Uptake efficiency is monitored in every transfection using a fluorescently labeled oligonucleotide and determined to be >90% in every experiment.” […]

[4] = test system: Tie-2; test: Ligand-induced Tie-2 phosphorylation in endothelial cells (anti-phosphotyrosine western blot); assay type: cell-based, human; conditions: endothelial cells pretreated 30 minutes with 0.1 mM or 1 mM; vs vehicle; p<0.05
Procedure: as §1, §2

[5] = test system: Human umbilical vein endothelial cells (HUVEC); test: Endothelial cell survival (CellTiter-Glo); assay type: cell-based; conditions: 500 μM compound
Procedure: Methods: Human umbilical vein endothelial cells (HUVEC, Clonetics) were seeded at 10,000/well in a 96-well plate for 2 hours in EGM media (Clonetics). The cells were then serum-deprived for 2 hours in DMEM (Invitrogen) supplemented with 0.2% bovine serum albumin. Quadruplicate wells were then treated with either vehicle or 500 μM Compound in the presence or absence of either 500 pM recombinant human VEGF165 or 250 ng/mL recombinant human Angiopoietin-1 (Ang-1) (R&D Systems) for 72 hours in DMEM supplemented with 0.2% bovine serum albumin. Cells remaining after incubation were detected using the CellTiter-Glo™ System according to the manufacturers instructions (Promega) and measured using a Victor V plate reader (Perkin Elmer/Wallac).

[6] = test system: Rat thoracic aortic rings; test: Rat aortic ring explant angiogenesis assay; conditions: 100 μM and 300 μM; p<0.05 vs control
Procedure: Methods: The isolated rat aortic ring model of angiogenesis is performed using the thoracic aorta from 150-175 gram, male Sprague-Dawley rats (Charles River). The excised thoracic aorta is placed in sterile saline solution and transferred to endothelial basal media (EBM, Clonetics) containing 1% antibiotics/antimycotic (Gibco BRL). Periadventitial fibroadipose tissue and any visible blood clots were removed. Aortas are cross-sectioned at ˜1 mm intervals and the resulting tissues placed in 100 μl of Dulbecco's Modified Eagle Medium (DMEM) containing 2% FBS, in the presence or absence of adenovirus for green fluorescent protein, empty virus or HPTPbeta (all at 1.0×10^11 virus particles/ml), as described. Rings are incubated for 30 minutes at 37° C. in a humidified incubator under a constant 5% CO2 atmosphere. Following adenoviral infection, aortic rings were washed with EBM and placed in a 24-well tissue culture plate. Aortic rings are overlaid with 450 μl of collagen solution consisting of 8 volumes of 3 mg/ml rat tail collagen (Sigma) in 0.1% acetic acid, 1 volume of 10× M-199 supplemented with 100 mg/ml L-glutamine, and 1 volume of 10× collagen buffer (0.0SN NaOH, 200 mM HEPES, 260 mM NaHCO3). […] Images (TIFF) are taken using a SPOT camera connected to a Nikon inverted microscope and analyzed (vessel extent and area) using automated image analysis software. […]

[7] = test system: HEK293H cells; test: In-cell phosphatase activity (DiFMUP) in HPTPbeta-transfected HEK293H cells; assay type: cell-based, human; conditions: 500 μM, 15 minutes pre-incubation
Procedure: For phosphatase activity in human embryonic kidney cells, HEK293H (Gibco) are grown in suspension in 293SFM media (Gibco) and transfected on 100 mm dishes using LIPOFECTAMINE™ 2000 (Invitrogen), a proprietary formulation for the transfection of nucleic acids (DNA and RNA) into eukaryotic cells. After 24 hours cells are resuspended transferred back to shaker flasks for an additional 24 hours. Phosphatase activity is measured using DiFMUP in 96 well plates as above with 100,000 cells/well. For inhibition of tyrosine phosphatases, the cells are pre-incubated with Bis-maloalto-organovanadium (BMOV) for 15 minutes prior to the addition of DIFMUP. HPTPbeta protein expression is confirmed after each experiment in parallel plates by western blotting.

[8] = test system: HUVEC; test: In-cell phosphatase activity (DiFMUP) in HPTPbeta adenovirus infected HUVECs; assay type: cell-based, human; conditions: 500 μM
Procedure: In cell phosphatase assays are accomplished by infecting Human Umbilical Vein Endothelial Cells with HPTPbeta, GFP, or Empty adenovirus in 100 mm dishes for 24 hours. Infected cells were trypsinized and re-plated at 5,000 cells/well in a 96 well plate and allowed to attach for 2 hours in complete growth medium (EGM). Complete medium was replaced with Hanks Buffered Saline (HBSS, Gibco) and substrate fluorescence are measured 15 minutes after the addition of 100 uM DiFMUP substrate (Molecular Probes) using a Victor V plate reader as mentioned in Example 2.

T1 sequence (P23467 with tags, fused parts or gaps): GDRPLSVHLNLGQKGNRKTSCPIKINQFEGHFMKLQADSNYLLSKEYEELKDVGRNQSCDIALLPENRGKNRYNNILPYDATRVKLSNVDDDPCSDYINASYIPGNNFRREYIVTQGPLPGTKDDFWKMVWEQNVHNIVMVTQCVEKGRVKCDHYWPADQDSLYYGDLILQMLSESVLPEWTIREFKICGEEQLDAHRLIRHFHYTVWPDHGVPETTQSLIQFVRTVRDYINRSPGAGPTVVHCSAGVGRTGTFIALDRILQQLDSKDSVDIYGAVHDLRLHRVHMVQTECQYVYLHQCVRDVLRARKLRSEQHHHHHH

| Compound | potency of inhibition of HPTPbeta activity [1] | selectivity for HPTPbeta over the other phosphatases tested [2] | ligand stimulated tyrosine phosphorylation of VEGFR2 [3] | ligand stimulated tyrosine phosphorylation of Tie-2 [4] | cell survival with VEGF165 stimulation ([5]; 500 pM VEGF165, 72 hours, vs vehicle) | cell survival with Ang-1 stimulation ([5]; 250 ng/mL Ang-1, 72 hours, vs vehicle) | basal cell survival ([5]; no ligand, vs untreated controls) | vessel area [6] | vessel extent [6] | phosphatase activity in HEK293H cells [7] | phosphatase activity in HUVEC's [8] |
| --- | --- | --- | --- | --- | --- | --- | --- | --- | --- | --- | --- |
| CNC(=O)C(Cc1ccc(NS(=O)(=O)O)cc1)NC(=O)OC(C)(C)C (stereo in doubt) [Compound 1, (R)-[1-Methylcarbamoyl-2-(4-sulfoamino-phenyl)-ethyl]-carbamic acid tert-butyl ester] | nanomolar | at least 10 fold | increased | increased | increased cell survival | increased cell survival | increased basal levels of survival | significant increases | significant increases |  |  |
| Cc1occc(=O)c1[O-].Cc1occc(=O)c1[O-].[O]=[V+2] [BMOV, Bis-maloalto-organovanadium] |  |  |  |  |  |  |  |  |  | inhibited | inhibited |
